# Test results from patent US6994841B1, “Relating to magnetic resonance imaging” (Kucharczyk and Moseley Partners, priority 1990, dated 2006).
# Key:
# [1] = system: cat brain after right middle cerebral artery (MCA) occlusion; experiment: DyDTPA-BMA-enhanced T2-weighted spin-echo MRI of cerebral perfusion deficit after MCA occlusion; format: in vivo; settings: for signal difference between ischemic and contralateral control tissue: mean ± S.E.M.
# Method: Young adult cats weighing 2.0 to 4.5 kg were anaesthetized with 30 mg/kg i.v. Nembutal. Polyethylene catheters were placed in the femoral artery and vein for blood pressure monitoring and drug administration. The right middle cerebral artery (MCA) was isolated via the transorbital approach and occluded just proximal to the origin of the lateral striate arteries with bipolar electrocautery followed by complete surgical transection. The dural incision and orbit were covered with saline moistened gauze and absorbable gelatin sponge.
# A General Electric CSI (2 Tesla) unit, equipped with Acustar S-150 self-shielded gradient coils (+20 gauss/cm, 15 cm bore size) was used. MRI was performed with an 8.5 cm inner-diameter low-pass birdcage proton imaging coil. Successive multislice T2-weighted coronal images were obtained for up to 12 hours following occlusion. Spin-echo T2-weighted images (TR 2800, TE 80 and 160, 3 mm slices, 1 mm gap) were obtained with a field-of-view (FOV) of 80 mm in which two scans were averaged for each one of the 128 phase-encoding steps resulting in a total acquisition time of 12 minutes.
# In order to evaluate the anatomic region of perfusion deficiency following MCA occlusion, cats were injected with a non-ionic T2*-shortening contrast agent, DyDTPA-BMA. The DyDTPA-BMA complex was prepared by refluxing an aqueous suspension containing stoichiometric amounts of dysprosium oxide and DTPA-BMA. The contrast agent was infused i.v. at doses of 0.25, 0.5 or 1.0 mmol/kg beginning at phase-encoding step #32 and finishing at step #60 (approximately 3 min) of T2-weighted image acquisition. DyDTPA-BMA injections were given at different time points post MCA occlusion in individual cats. After injection, the magnetic susceptibility effect was quantified for up to 60 minutes in both ischemic and normal hemispheres by comparing region-of-interest (ROI) intensity to pre-contrast T2-weighted ROI intensities. […] A signal intensity ratio was calculated as the ROI image intensity ratio of an abnormal, ischemic region over that of the normal, contralateral side. Results were expressed as the mean percentage change ±Standard Error of the Mean (X±S.E.M.)
# At the conclusion of the MR protocol, 15 ml/kg of a 2% solution of 2,3,5-triphenyl tetrazolium chloride (TTC) was infused transcardially. The brain was removed from the cranium after 10–20 minutes, immersed in a 2% TTC solution for another 10–20 minutes, and then stored overnight in 10% buffered formalin in a light shielded container. The brain was sectioned coronally (2–3 mm slices) from 24–36 hours later and immediately examined for histologic evidence of ischemic damage as evidenced by pallor of TTC-staining.
# [2] = system: mice; experiment: LD50 i.v. administration in mice; format: in vivo
smiles,measurement,setting,value
CNC(=O)CN(CCN(CCN(CC(=O)[O-])CC(=O)NC)CC(=O)[O-])CC(=O)[O-].[Dy+3] [DyDTPA-BMA],Onset of signal hypertensity (relative to pre-contrast T2-weighted image): Earlier (number of cats),"[1]; 0.25 mmol/kg, 5 cats tested",1
same,Onset of signal hypertensity (relative to pre-contrast T2-weighted image): Later (number of cats),"[1]; 0.25 mmol/kg, 5 cats tested",0
same,Onset of signal hypertensity (relative to pre-contrast T2-weighted image): Same Time (number of cats),"[1]; 0.25 mmol/kg, 5 cats tested",4
same,Signal intensity ratio of injured to contralateral control tissue (relative to pre-contrast T2 weighted image): Better (number of injections),"[1]; 0.25 mmol/kg, 5 injections",4
same,Signal intensity ratio of injured to contralateral control tissue (relative to pre-contrast T2 weighted image): Same (number of injections),"[1]; 0.25 mmol/kg, 5 injections",1
same,Signal intensity ratio of injured to contralateral control tissue (relative to pre-contrast T2 weighted image): Worse (number of injections),"[1]; 0.25 mmol/kg, 5 injections",0
same,maximum signal intensity losses,"[1]; 0.5 mmol/kg i.v., gray matter of normal non-occluded cerebral hemisphere, first 15 minutes after injection",35%
same,Onset of signal hypertensity (relative to pre-contrast T2-weighted image): Earlier (number of cats),"[1]; 0.50 mmol/kg, 16 cats tested",12
same,Onset of signal hypertensity (relative to pre-contrast T2-weighted image): Later (number of cats),"[1]; 0.50 mmol/kg, 16 cats tested",0
same,Onset of signal hypertensity (relative to pre-contrast T2-weighted image): Same Time (number of cats),"[1]; 0.50 mmol/kg, 16 cats tested",4
same,Signal intensity ratio of injured to contralateral control tissue (relative to pre-contrast T2 weighted image): Better (number of injections),"[1]; 0.50 mmol/kg, 23 injections",17
same,Signal intensity ratio of injured to contralateral control tissue (relative to pre-contrast T2 weighted image): Same (number of injections),"[1]; 0.50 mmol/kg, 23 injections",6
same,Signal intensity ratio of injured to contralateral control tissue (relative to pre-contrast T2 weighted image): Worse (number of injections),"[1]; 0.50 mmol/kg, 23 injections",0
same,Onset of signal hypertensity (relative to pre-contrast T2-weighted image): Earlier (number of cats),"[1]; 1.0 mmol/kg, 6 cats tested",4
same,Onset of signal hypertensity (relative to pre-contrast T2-weighted image): Later (number of cats),"[1]; 1.0 mmol/kg, 6 cats tested",0
same,Onset of signal hypertensity (relative to pre-contrast T2-weighted image): Same Time (number of cats),"[1]; 1.0 mmol/kg, 6 cats tested",2
same,Signal intensity ratio of injured to contralateral control tissue (relative to pre-contrast T2 weighted image): Better (number of injections),"[1]; 1.0 mmol/kg, 16 injections",14
same,Signal intensity ratio of injured to contralateral control tissue (relative to pre-contrast T2 weighted image): Same (number of injections),"[1]; 1.0 mmol/kg, 16 injections",2
same,Signal intensity ratio of injured to contralateral control tissue (relative to pre-contrast T2 weighted image): Worse (number of injections),"[1]; 1.0 mmol/kg, 16 injections",0
same,"signal intensity recovery, of pre-contrast control values","[1]; 45 minutes after administration, all cerebral tissues",at least 90%
same,signal difference between ischemic and contralateral control tissue,[1]; basal ganglia,26±8%
same,time post-occlusion at which relative hyperintensity was found in occluded basal ganglia (as early as),[1]; both 1 mmol/kg and 0.5 mmol/kg dosages,30 min
same,difference in immediate post-contrast signal intensity on increasing dosage,[1]; dosage increased from 0.5 to 1.0 mmol/kg,only a minimal difference
same,signal difference between ischemic and contralateral control tissue,[1]; gray matter in the inferior parietal gyrus,42±14%
same,signal difference between ischemic and contralateral control tissue,[1]; white matter in the internal capsule,5±4%
same,LD50,[2],34 mmol/kg
